Experimental data taken from patent US20230089605A1, “USE OF DOXYCYCLINE, RESVERATROL, IVERMECTIN, AND RELATED CHEMICALLY MODIFIED COMPOUNDS TO TREAT OR PREVENT VIRAL INFECTIONS” (Ardestat Biologics, LLC, priority 2021, published 2023).

Target: T1, MMP9 (Homo sapiens, UniProt P14780)
T1 construct: purchased Abcam ab139449
Experiment: MMP9 inhibitor screening assay kit (Fluorometric), Abcam
Format: biochemical
Conditions: result given in words only
Description: Doxycycline, resveratrol, colchicine, and ivermectin were assessed at the indicated concentrations using the MMP9 Inhibitor Screening Assay Kit (abcam), according to the manufacturer's instructions.
Inhibition of MMP9 was determined using the MMP9 inhibitor screening assay kit (Fluorometric) from Abcam (Cat#ab139449) according to the manufacturer's instructions. Unquenching of a fluorogenic peptide by MMP9 was monitored for 10 minutes in the presence or absence of inhibitory compounds, using a fluorescent microplate reader (Ex/Em=328/420). Reaction velocity (V) in RFU/minute was used to determine the % of remaining enzymatic activity, relative to untreated control, according to the following equation: (Vinhibitor/Vcontrol)×100 (FIG. 2).

T1 sequence (P14780 107-444 limits assumed): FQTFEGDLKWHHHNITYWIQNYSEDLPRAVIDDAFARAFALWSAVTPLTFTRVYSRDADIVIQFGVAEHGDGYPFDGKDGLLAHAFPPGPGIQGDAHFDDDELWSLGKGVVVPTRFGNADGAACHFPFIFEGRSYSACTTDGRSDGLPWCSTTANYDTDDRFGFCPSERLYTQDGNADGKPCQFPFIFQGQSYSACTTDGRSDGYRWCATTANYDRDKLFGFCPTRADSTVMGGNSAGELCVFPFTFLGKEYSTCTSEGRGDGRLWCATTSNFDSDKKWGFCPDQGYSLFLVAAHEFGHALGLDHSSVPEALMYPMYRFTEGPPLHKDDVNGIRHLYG

## Oc1ccc(C=Cc2cc(O)cc(O)c2)cc1 [resveratrol]
Fluorogenic peptide unquenching monitored 10 minutes, FIG. 2
  inhibition of MMP activity (% of remaining enzymatic activity relative to untreated control): inhibited MMP activity but to a much more modest extent compared to doxycycline

## ivermectin
  interference with the MMP-inhibiting effects of doxycycline and resveratrol: has not been shown to interfere with these MMP-inhibiting effects
